From patent publication US20250064777A1, “PHARMACEUTICAL COMPOSITION FOR TREATMENT OF CASTRATION-RESISTANT PROSTATE CANCER COMPRISING BRUCEANTIN AND NANOPARTICLES” (SAMSUNG LIFE PUBLIC WELFARE FOUNDATION, priority 2021, published 2025)
Where two headings read alike, the source gives them in different places.

Tests used:
[1] = Solubility of nano-bruceantin in aqueous solution (visual examination, UV-Vis spectroscopy); assay type: physicochemical
[2] = test system: nude mice; test: Short-term toxicity of bruceantin and nano-bruceantin; assay type: in vivo; conditions: 5 mg/kg daily for 7 days, FIG. 3
Experimental: (§1) As Experimental Animals, 6-Week-Old Male Nude Mice (Orient Bio, Korea) were used.
Mice were divided into a nanoparticle-administered group (nano-Veh), a phosphate buffer saline-administered group (PBS), a nano-bruceantin-administered group (nano-BCT), and a bruceantin-administered group (free-BCT). The nano-BCT group was orally administered nano-bruceantin at 5 mg/kg daily for 7 days, and the free-BCT group was orally administered bruceantin at 5 mg/kg daily for 7 days.

[3] = test system: nude mice; test: Long-term toxicity of bruceantin and nano-bruceantin; assay type: in vivo; conditions: 2 mg/kg every two days for 17 days, FIG. 4
Experimental: as §1
The nano-BCT group was orally administered nano-bruceantin at 2 mg/kg every two days for 17 days, and the free-BCT group was orally administered bruceantin at 2 mg/kg every two days for 17 days.

[4] = test system: 22RV1 cells; test: Cell growth inhibition assay; assay type: cell-based; conditions: concentration of 10 nM or more, FIG. 5
Experimental: (§2) Castration-resistant prostate cancer cell line 22RV1 cells were cultured with RPMI-1640 (Welgene) medium containing 10% fetal bovine serum (FBS) (Welgene) and 1% penicillin/streptomycin.
(§3) Castration-resistant prostate cancer cell line 22RV1 cells were treated with various concentrations of each of bruceantin (BCT), nano-bruceantin 1 (nano-BCT #1), and nano-bruceantin 2 (nano-BCT #2) and subjected to cell growth inhibition assay and colony formation assay. Reporter gene assay was performed by transfecting 22RV1 cells with an MMTV-LUC reporter, which can measure the transcriptional activities of AR and AR-V7, and treating the cells with various concentrations of each of BCT, nano-BCT #1, and nano-BCT #2 depending on the presence or absence of the androgen dihydrotestosterone (DHT) (DHT+, AR transcriptional activity measurement condition; DHT−, AR-V7 transcriptional activity measurement condition). Immunoblotting was performed by treating 22RV1 cells with various concentrations of each of BCT and nano-BCT, extracting protein from the cells, electrophoresise protein on 4 to 12% SDS-PAGE gel, and transferring the electrophoresed protein to a PVDF membrane, followed by incubation with antibody.

[5] = test system: 22RV1 cells; test: Colony formation assay; assay type: cell-based; conditions: various concentrations, FIG. 6
Experimental: as §2, §3

[6] = test system: AR; test: MMTV-LUC reporter gene assay, DHT+ (AR transcriptional activity); assay type: cell-based; conditions: 22RV1 cells, FIG. 7
Experimental: as §2, §3

[7] = test system: AR-V7; test: MMTV-LUC reporter gene assay, DHT− (AR-V7 transcriptional activity); assay type: cell-based; conditions: 22RV1 cells, FIG. 7
Experimental: as §2, §3

[8] = test system: AR; test: Immunoblotting for AR in 22RV1 cells; assay type: cell-based; conditions: various concentrations, FIG. 8
Experimental: as §2, §3

[9] = test system: AR-V7; test: Immunoblotting for AR-V7 in 22RV1 cells; assay type: cell-based; conditions: various concentrations, FIG. 8
Experimental: as §2, §3

[10] = test system: CWR22RV1; test: CWR22RV1 xenograft mice: tumor volume and bioluminescence; assay type: in vivo; conditions: oral, 2 mg/kg every two days for 19 days
Experimental: Castration-resistant prostate cancer cell line CWR22RV1 was purchased from ATCC (USA), and xenograft mice were constructed by subcutaneously injecting CWR22RV1 into nude mice.
The xenograft mice were divided into a nanoparticle-treated group (nano-Veh), a control group (free-Veh), a nano-bruceantin-treated group (nano-BCT), and a bruceantin-treated group (free-BCT). The nano-BCT group and the free-BCT group were orally administered nano-bruceantin and bruceantin, respectively, at 2 mg/kg every two days for 19 days. Thereafter, tumor volume and bioluminescence were measured for each treated group.

[11] = test system: AR/AR-V7; conditions: castration-resistant prostate cancer cell line 22RV1 cells; KR 10-2020-0139625; cited from earlier work
[12] = test system: AR/AR-V7; conditions: androgen-dependent LNCaP cells; KR 10-2020-0139625; cited from earlier work

COC(=O)[C@@]12OC[C@]34[C@H]([C@@H](O)[C@@H]1O)[C@@]1(C)CC(=O)C(O)=C(C)[C@@H]1C[C@H]3OC(=O)[C@H](OC(=O)/C=C(\C)C(C)C)[C@@H]24 [bruceantin]
solubility [1]: < 100 µg/mL | side effects upon short-term oral administration [2]: accompanied by acute side effects such as exophthalmos, sudden death, and weight loss | side effects upon long-term oral administration [3]: accompanied by side effects such as exophthalmos, sudden death, and weight loss | cell growth inhibitory effect, compared between groups [4]: similar | colony formation, compared between groups [5]: no significant difference | AR transcriptional activity (reporter gene), compared between groups [6]: no significant difference | AR-V7 transcriptional activity (reporter gene), compared between groups [7]: no significant difference | AR protein (immunoblotting) [8]: decreased | AR-V7 protein (immunoblotting) [9]: decreased | tumor volume ([10]; FIG. 9): decrease in tumor volume was from day 13 | bioluminescence ([10]; FIG. 10): decrease in bioluminescence | transcriptional activity of AR/AR-V7 [11]: simultaneously and strongly inhibit | transcriptional activity of AR/AR-V7 [12]: simultaneously and strongly inhibit
